From patent US20180200257A1, “METHODS FOR THE TREATMENT OF INFLAMMATORY DISORDERS” (Galapagos NV, priority 2015, published 2018)

System: subjects with moderately to severely active RA who have an inadequate response to methotrexate (MTX)
Experiment: Study 1 (add-on to MTX) - Alanine Aminotransferase (ALT) levels
Assay type: in vivo, human
Protocol: Double-blind, placebo-controlled add on study in subjects with moderately to severely active RA who have an inadequate response to methotrexate (MTX) (oral or parenteral).
595 subjects randomized to one of 6 dose regimens of Compound 1 (dosed as [Compound 1:HCl:3H2O]) (3 dose levels administered either once or twice daily) or placebo on top of each subject's stable dose of MTX.
Compound 1 (dosed as [Compound 1:HCl:3H2O]) is dosed for twelve weeks once daily (q.d.) (50 mg, 100 mg or 200 mg) or twice daily (b.i.d.) (25 mg, 50 mg or 100 mg); or placebo.
At Week 12, the subjects on placebo who have not achieved 20% improvement in swollen joint count (SJC66) and tender joint count (TJC68) are re-randomized automatically to receive Compound 1 (dosed as a [Compound 1:HCl:3H2O]) either at 100 mg q.d. or 50 mg b.i.d. doses in a blinded fashion; subjects on 50 mg q.d. who have not achieved 20% improvement in SJC66 and TJC68 will be assigned to 100 mg q.d. and subjects on 25 mg b.i.d. that have not achieved a 20% improvement in SJC66 and TJC68 will be assigned to 50 mg b.i.d. Subjects who switch treatment at week 12 are handled as if they discontinued at week 12 for the purpose of statistical analysis, whereas subjects in the other groups will maintain their randomized treatment until Week 24.
ALT levels determination is available at Quest Diagnostics, Clinical Trials, Quest House, 125-135 Staines Road, Hounslow, Middlesex, TW3 3JB, United Kingdom under Catalogue n#84460.
ALT catalyzes the exchange of the amino group of alanine with the oxogroup of 2-ketoglutarate to form pyruvate and glutamate. In the presence of lactic dehydrogenase, pyruvate reacts with NADH to form NAD+, measured spectrophotometrically. Guidelines for the ALT value have been issued by the association for Clinical Biochemistry and Laboratory Medicine, 130-132 Tooley Street LONDON SE1 2TU, united Kingdom, wherein the ALT value should be below 34 U/l in Female and below 52 U/L in male.

[1] = 12 weeks results, 50 mg q.d., week 1
[2] = 12 weeks results, 50 mg q.d., week 2
[3] = 12 weeks results, 50 mg q.d., week 4
[4] = 12 weeks results, 50 mg q.d., week 8
[5] = 12 weeks results, 50 mg q.d., week 12
[6] = 12 weeks results, 100 mg q.d., week 1
[7] = 12 weeks results, 100 mg q.d., week 2
[8] = 12 weeks results, 100 mg q.d., week 4
[9] = 12 weeks results, 100 mg q.d., week 8
[10] = 12 weeks results, 100 mg q.d., week 12
[11] = 12 weeks results, 200 mg q.d., week 1
[12] = 12 weeks results, 200 mg q.d., week 2
[13] = 12 weeks results, 200 mg q.d., week 4
[14] = 12 weeks results, 200 mg q.d., week 8
[15] = 12 weeks results, 200 mg q.d., week 12
[16] = 12 weeks results, 2 × 25 mg b.i.d., week 1
[17] = 12 weeks results, 2 × 25 mg b.i.d., week 2
[18] = 12 weeks results, 2 × 25 mg b.i.d., week 4
[19] = 12 weeks results, 2 × 25 mg b.i.d., week 8
[20] = 12 weeks results, 2 × 25 mg b.i.d., week 12
[21] = 12 weeks results, 2 × 50 mg b.i.d., week 1
[22] = 12 weeks results, 2 × 50 mg b.i.d., week 2
[23] = 12 weeks results, 2 × 50 mg b.i.d., week 4
[24] = 12 weeks results, 2 × 50 mg b.i.d., week 8
[25] = 12 weeks results, 2 × 50 mg b.i.d., week 12
[26] = 12 weeks results, 2 × 100 mg b.i.d., week 1
[27] = 12 weeks results, 2 × 100 mg b.i.d., week 2
[28] = 12 weeks results, 2 × 100 mg b.i.d., week 4
[29] = 12 weeks results, 2 × 100 mg b.i.d., week 8
[30] = 12 weeks results, 2 × 100 mg b.i.d., week 12
[31] = 24 weeks results, continued 25 mg b.i.d., week 1
[32] = 24 weeks results, continued 25 mg b.i.d., week 2
[33] = 24 weeks results, continued 25 mg b.i.d., week 4
[34] = 24 weeks results, continued 25 mg b.i.d., week 8
[35] = 24 weeks results, continued 25 mg b.i.d., week 12
[36] = 24 weeks results, continued 25 mg b.i.d., week 16
[37] = 24 weeks results, continued 25 mg b.i.d., week 20
[38] = 24 weeks results, continued 25 mg b.i.d., week 24
[39] = 24 weeks results, continued 50 mg b.i.d., week 1
[40] = 24 weeks results, continued 50 mg b.i.d., week 2
[41] = 24 weeks results, continued 50 mg b.i.d., week 4
[42] = 24 weeks results, continued 50 mg b.i.d., week 8
[43] = 24 weeks results, continued 50 mg b.i.d., week 12
[44] = 24 weeks results, continued 50 mg b.i.d., week 16
[45] = 24 weeks results, continued 50 mg b.i.d., week 20
[46] = 24 weeks results, continued 50 mg b.i.d., week 24
[47] = 24 weeks results, continued 50 mg q.d., week 1
[48] = 24 weeks results, continued 50 mg q.d., week 2
[49] = 24 weeks results, continued 50 mg q.d., week 4
[50] = 24 weeks results, continued 50 mg q.d., week 8

Compound: O=C(Nc1nc2cccc(-c3ccc(CN4CCS(=O)(=O)CC4)cc3)n2n1)C1CC1 [Compound 1, cyclopropanecarboxylic acid {5-[4-(1,1-dioxo-thiomorpholin-4-ylmethyl)-phenyl]-[1,2,4]triazolo[1,5-a]pyridin-2-yl}-amide]
- Study 1 - ALT Mean CFB [1]: 1 IU/L
- Study 1 - ALT Mean percentage CFB [1]: 5%
- Study 1 - ALT Mean CFB [2]: −1 IU/L
- Study 1 - ALT Mean percentage CFB [2]: 0%
- Study 1 - ALT Mean CFB [3]: −1 IU/L
- Study 1 - ALT Mean percentage CFB [3]: 4%
- Study 1 - ALT Mean CFB [4]: 0 IU/L
- Study 1 - ALT Mean percentage CFB [4]: 9%
- Study 1 - ALT Mean CFB [5]: 0 IU/L
- Study 1 - ALT Mean percentage CFB [5]: 12%
- Study 1 - ALT Mean CFB [6]: 3 IU/L
- Study 1 - ALT Mean percentage CFB [6]: 14%
- Study 1 - ALT Mean CFB [7]: 1 IU/L
- Study 1 - ALT Mean percentage CFB [7]: 9%
- Study 1 - ALT Mean CFB [8]: 1 IU/L
- Study 1 - ALT Mean percentage CFB [8]: 9%
- Study 1 - ALT Mean CFB [9]: 2 IU/L
- Study 1 - ALT Mean percentage CFB [9]: 15%
- Study 1 - ALT Mean CFB [10]: 2 IU/L
- Study 1 - ALT Mean percentage CFB [10]: 16%
- Study 1 - ALT Mean CFB [11]: 2 IU/L
- Study 1 - ALT Mean percentage CFB [11]: 11%
- Study 1 - ALT Mean CFB [12]: 1 IU/L
- Study 1 - ALT Mean percentage CFB [12]: 16%
- Study 1 - ALT Mean CFB [13]: 1 IU/L
- Study 1 - ALT Mean percentage CFB [13]: 15%
- Study 1 - ALT Mean CFB [14]: 4 IU/L
- Study 1 - ALT Mean percentage CFB [14]: 31%
- Study 1 - ALT Mean CFB [15]: 3 IU/L
- Study 1 - ALT Mean percentage CFB [15]: 34%
- Study 1 - ALT Mean CFB [16]: −1 IU/L
- Study 1 - ALT Mean percentage CFB [16]: 4%
- Study 1 - ALT Mean CFB [17]: −2 IU/L
- Study 1 - ALT Mean percentage CFB [17]: 2%
- Study 1 - ALT Mean CFB [18]: −1 IU/L
- Study 1 - ALT Mean percentage CFB [18]: 9%
- Study 1 - ALT Mean CFB [19]: 0 IU/L
- Study 1 - ALT Mean percentage CFB [19]: 11%
- Study 1 - ALT Mean CFB [20]: 1 IU/L
- Study 1 - ALT Mean percentage CFB [20]: 21%
- Study 1 - ALT Mean CFB [21]: 1 IU/L
- Study 1 - ALT Mean percentage CFB [21]: 8%
- Study 1 - ALT Mean CFB [22]: 1 IU/L
- Study 1 - ALT Mean percentage CFB [22]: 13%
- Study 1 - ALT Mean CFB [23]: 3 IU/L
- Study 1 - ALT Mean percentage CFB [23]: 24%
- Study 1 - ALT Mean CFB [24]: 2 IU/L
- Study 1 - ALT Mean percentage CFB [24]: 20%
- Study 1 - ALT Mean CFB [25]: 2 IU/L
- Study 1 - ALT Mean percentage CFB [25]: 28%
- Study 1 - ALT Mean CFB [26]: 1 IU/L
- Study 1 - ALT Mean percentage CFB [26]: 9%
- Study 1 - ALT Mean CFB [27]: 1 IU/L
- Study 1 - ALT Mean percentage CFB [27]: 10%
- Study 1 - ALT Mean CFB [28]: 1 IU/L
- Study 1 - ALT Mean percentage CFB [28]: 20%
- Study 1 - ALT Mean CFB [29]: 1 IU/L
- Study 1 - ALT Mean percentage CFB [29]: 25%
- Study 1 - ALT Mean CFB [30]: 2 IU/L
- Study 1 - ALT Mean percentage CFB [30]: 26%
- Study 1 - ALT Mean CFB [31]: 0.8 IU/L
- Study 1 - ALT Mean percentage CFB [31]: 8.9%
- Study 1 - ALT Mean CFB [32]: −0.4 IU/L
- Study 1 - ALT Mean percentage CFB [32]: 5.4%
- Study 1 - ALT Mean CFB [33]: 0.3 IU/L
- Study 1 - ALT Mean percentage CFB [33]: 10.9%
- Study 1 - ALT Mean CFB [34]: 1.8 IU/L
- Study 1 - ALT Mean percentage CFB [34]: 18.4%
- Study 1 - ALT Mean CFB [35]: 2.5 IU/L
- Study 1 - ALT Mean percentage CFB [35]: 28.6%
- Study 1 - ALT Mean CFB [36]: 1.2 IU/L
- Study 1 - ALT Mean percentage CFB [36]: 21.4%
- Study 1 - ALT Mean CFB [37]: 0.0 IU/L
- Study 1 - ALT Mean percentage CFB [37]: 15.2%
- Study 1 - ALT Mean CFB [38]: 1.4 IU/L
- Study 1 - ALT Mean percentage CFB [38]: 25.1%
- Study 1 - ALT Mean CFB [39]: 0.6 IU/L
- Study 1 - ALT Mean percentage CFB [39]: 8.5%
- Study 1 - ALT Mean CFB [40]: 1.2 IU/L
- Study 1 - ALT Mean percentage CFB [40]: 13.0%
- Study 1 - ALT Mean CFB [41]: 2.5 IU/L
- Study 1 - ALT Mean percentage CFB [41]: 24.2%
- Study 1 - ALT Mean CFB [42]: 2.2 IU/L
- Study 1 - ALT Mean percentage CFB [42]: 20.3%
- Study 1 - ALT Mean CFB [43]: 2.1 IU/L
- Study 1 - ALT Mean percentage CFB [43]: 27.6%
- Study 1 - ALT Mean CFB [44]: 1.6 IU/L
- Study 1 - ALT Mean percentage CFB [44]: 20.1%
- Study 1 - ALT Mean CFB [45]: 3.0 IU/L
- Study 1 - ALT Mean percentage CFB [45]: 26.2%
- Study 1 - ALT Mean CFB [46]: 1.8 IU/L
- Study 1 - ALT Mean percentage CFB [46]: 18.7%
- Study 1 - ALT Mean CFB [47]: 0.9 IU/L
- Study 1 - ALT Mean percentage CFB [47]: 6.6%
- Study 1 - ALT Mean CFB [48]: −0.7 IU/L
- Study 1 - ALT Mean percentage CFB [48]: 1.4%
- Study 1 - ALT Mean CFB [49]: −0.6 IU/L
- Study 1 - ALT Mean percentage CFB [49]: 4.8%
- Study 1 - ALT Mean CFB [50]: 0.4 IU/L
- Study 1 - ALT Mean percentage CFB [50]: 10.6%
